Results: paper PMC2965028 (Biochemistry, 2010)

Tests used:
Q148H IN = Q148H IN (Human immunodeficiency virus type 1 group M subtype B, UniProt P12497, Q1295H); assay type: biochemical, HIV-1; conditions: IC50 Q148H vs IC50 wt IN
[1] = biological target: HIV-1 synaptic complex (SC) (Human immunodeficiency virus type 1 group M subtype B, UniProt P12497); assay: Trapping of SC and H-SC on native agarose gels; assay type: biochemical; conditions: wt IN 20 nM, U5 DNA 0.5 nM, 2 h at 37°C, native agarose gel
HIV-1 = conditions: in 50% normal human serum; cited from earlier work
wt IN-DNA complex = conditions: cited from earlier work
N155H IN-DNA complex = conditions: cited from earlier work
N155H IN = N155H IN (Human immunodeficiency virus type 1 group M subtype B, UniProt P12497, N1302H); assay type: biochemical, HIV-1; conditions: IC50 N155H vs IC50 wt IN
wt HIV-1 IN = wt HIV-1 IN (Human immunodeficiency virus type 1 group M subtype B, UniProt P12497); conditions: read-out: IC50, inhibition with two blunt-ended DNA molecules in SC; cited from earlier work

Compound | Inhibitor concentration at which trapped SC and H-SC were first detected [1] | Dissociation half-life from wt IN-DNA complex (wt IN-DNA complex) | Dissociation half-life from N155H IN-DNA complex (N155H IN-DNA complex) | also measured
CCN1C[C@H](C)n2c(c(O)c3c(=O)n(Cc4ccc(F)c(Cl)c4)nc(C(=O)NC)c32)C1=O [MK-2048] | ≥ 10 nM | ~32 h | ~4 h | Fold change in IC50 for FS products, Q148H IN relative to wt IN (resistance) (Q148H IN): 2 fold; Antiviral activity IC95 (HIV-1): 41 nM
O=C(O)C(=O)C=C(O)c1cn(Cc2ccc(F)cc2)c2cc(N3CCCC3)ccc2c1=O [RDS 2197] | ≥ 250 nM | – | – | Fold change in IC50 for FS products, N155H IN relative to wt IN (resistance) (N155H IN): 1.3 fold
O=C(O)C(=O)/C=C(\O)c1ccc2c(c1)c(=O)c(/C(O)=C/C(=O)C(=O)O)cn2Cc1ccc(F)cc1 [RDS 1997] | ≥ 50 nM | – | – | –
O=C(NCc1ccc(F)cc1)c1nc(N2CCCCS2(=O)=O)c2cccnc2c1O [L-870,810] | – | – | – | IC50 (wt HIV-1 IN): ~32 nM
Cc1nnc(C(=O)NC(C)(C)c2nc(C(=O)NCc3ccc(F)cc3)c(O)c(=O)n2C)o1 [RAL, raltegravir] | – | 7.3 h | ~0.7 h | –
